# Measurements published in article PMC2614347, “A Novel Peptide Enhances Therapeutic Efficacy of Liposomal Anti-Cancer Drugs in Mice Models of Human Lung Cancer” (PLoS ONE, 2009).
# Ends that are not written are not given here.
# What was measured:
# PC13 cells [1] = test system: PC13 cells
# Protocol: (§4) FITC-labeled SP5-2 binding to NSCLC cells was analyzed by flow cytometry.
# CL1-5 cells [2] = test system: CL1-5 cells
# Protocol: as §4
# CL1-5-derived tumors = assay: In vivo homing and tissue distribution of phages; design: species or system SCID mice
# Protocol: SCID mice were injected subcutaneously (s.c.) in the dorsolateral flank with 1×10^7 human NSCLC cells. The mice bearing size-matched lung cancer xenografts (approximately 500 mm^3) were injected i.v. with 10^9 pfu of the targeting or control phage. After perfusion, xenograft tumors and mouse organs were removed and homogenized. The phages bound to each tissue sample were recovered through the addition of ER2738 bacteria and titered on IPTG/X-Gal agar plates. In the peptide competitive inhibition experiments, the phages were injected along with 100 µg synthetic targeting peptide, control peptide or mutant peptide. The organs and tumor masses were fixed in Bouin's solution (Sigma, MO, USA). After fixation, the samples were embedded in paraffin blocks. The paraffin sections were deparaffinized, rehydrated, and subjected to immunostaining using the mouse M13 mAb as described above.
# NSCLC xenografts = assay: Doxorubicin autofluorescence microscopy of tumor sections; type: in vivo, SCID mice; conditions: fluorescence microscope; 1, 4 and 24 hours post-injection
# Description: Tissue sections were imaged with a FLUAR 10×/0.50 NA lens and captured with a Roper Scientific CoolSnap HQ CCD camera. All images were captured in 8-bit signal depth and subsequently pseudo-colored.
# CL1-5-derived xenografts = assay: Ligand-targeted therapy of lung cancer xenografts; type: in vivo, SCID mice; conditions: doxorubicin 1 mg/kg i.v. twice a week, eight injections; n = 6
# Protocol: Mice 4–6 weeks of age were injected s.c. in the dorsolateral flank with human NSCLC cells. […] Mouse body weights and tumor sizes were measured twice a week. Tumor volumes were calculated using the equation: length×(width)^2×0.52. Animal care was carried out in accordance with guidelines of Academia Sinica, Taiwan.
# [3] = Pharmacokinetic and biodistribution study of doxorubicin formulations; type: in vivo, SCID mice; conditions: 2 mg/kg i.v., n = 3 per time point
# Protocol: At selected time points, three mice in each group were anaesthetized and sacrificed. Blood samples were collected through submaxillary punctures, and plasma samples were prepared. After perfusion, xenograft tumors and mouse organs were removed and homogenized.
# H460-derived xenografts = assay: Ligand-targeted therapy of lung cancer xenografts; type: in vivo, SCID mice; conditions: doxorubicin 1 mg/kg i.v. twice a week, eight injections
# [4] = test system: surgical specimens of human lung cancer (pulmonary adenocarcinoma); assay: Binding of phages and synthetic peptides to surgical specimens of lung cancer, immunohistochemistry
# Protocol: For localization of peptide binding on lung cancer tissues, frozen sections of NSCLC tissues were prepared and incubated with phage clones or biotin-labeled peptides. For the peptide competitive inhibition assay, phages were mixed with the synthetic targeting or mutant peptide. The slides were subjected to routine immunohistochemical staining, [30]. All surgical specimens were obtained from the tissue bank of National Taiwan University Hospital (NTUH) with approval from the Institutional Review Board in NTUH (IRB9461702021).
# oral cancer (SAS) cells = assay: Phage binding to cells, immunohistochemical staining; design: species or system human; conditions: immunohistochemistry, anti-M13 mAb
# Protocol: (§1) Cells were plated and grown to about 80% confluence on cover slips. The cover slips were treated with 3% hydrogen peroxide plus 0.1% NaN3 to block endogenous peroxidase activity, and then incubated with phages. After the cover slips had been washed and fixed with 3% paraformaldehyde, they were incubated with HRP-labeled mouse anti-M13 mAb and treated with peroxidase substrate. For the peptide binding assays, 30 µg/ml FITC-labeled SP5-2 or control peptide was added on each cover slip and incubated. They were counterstained with Hoechst 33258 (Molecular Probes, OR, USA) and mounted with a mounting solution (Vector, CA, USA). The cells were then examined under a Leica universal microscope. The images were merged using the SimplePCI software (C-IMAGING, PA, USA).
# CL1-5 cells [5] = assay: as above; design: species or system human; conditions: immunohistochemistry, anti-M13 mAb
# Protocol: as §1
# PC13 cells [6] = assay: as above; design: species or system human; conditions: immunohistochemistry, anti-M13 mAb
# Protocol: as §1
# [7] = test system: nasopharyngeal carcinoma cells (NPC-TW01); assay: as above; design: species or system human; conditions: immunohistochemistry, anti-M13 mAb
# Protocol: as §1
# [8] = test system: normal epithelial cells (NNM) from nasal mucosa; assay: as above; design: species or system human; conditions: immunohistochemistry, anti-M13 mAb
# Protocol: as §1
# NPC-TW01 cells = assay: Phage binding, immunofluorescent staining; design: species or system human
# CL1-5 cells [9] = assay: Phage binding and peptide competition, flow cytometry; design: species or system human; conditions: fraction of cells gated for positive binding
# Protocol: (§2) The lung and other cancer cell lines were collected using PBS containing 50 mM EDTA, then incubated with phages or FITC-labeled peptides. For the peptide competitive inhibition assay, phages were mixed with different concentrations of the synthetic peptide and the mixture was incubated with the cells. After washing, the phage-bound cells were incubated with anti-M13 mAbs and then treated with FITC-conjugated goat anti-mouse IgG antibody. Cells were washed and analyzed with a flow cytometer (Becton Dickinson)
# (§3) Fig. S2. The binding activity of PC5-2 to NSCLC cells was analyzed by flow cytometry. The samples included cells only (a, green), control phage (b, red), and PC5-2 (blue). The percentages indicate the fraction of cells gated for positive binding (c).
# SAS cells = assay: Phage binding, flow cytometry; design: species or system human
# Protocol: as §2, §3
# NNM cells = assay: Phage binding, flow cytometry; design: species or system human
# Protocol: as §2, §3
# Protocol for A549 cells: as §4
# Protocol for H23 cells: as §4
# Protocol for H460 cells: as §4
molecule,measurement,setting,value
TDSILRSYDWTY [SP5-2],Proportion of PC13 cells bound by SP5-2,PC13 cells [1],20.1%
same,Proportion of CL1-5 cells bound by SP5-2,CL1-5 cells [2],43.0%
same,Proportion of H23 cells bound by SP5-2,H23 cells,44.0%
same,Proportion of H460 cells bound by SP5-2,H460 cells,45.8%
same,Proportion of A549 cells bound by SP5-2,A549 cells,44.3%
"DMPKQLLAPWYY [PC5-4, phage clone displaying […]]",Recovery of PC5-4 phage from tumor versus control organs,"CL1-5-derived tumors; i.v., recovered after perfusion, SCID mice bearing NSCLC xenografts (Fig. S4)",higher than from control organs
"COc1cccc2c1C(=O)c1c(O)c3c(c(O)c1C2=O)C[C@@](O)(C(=O)CO)C[C@@H]3O[C@H]1C[C@H](N)[C@H](O)[C@H](C)O1 [FD, doxorubicin]",Areas of tumor sections with detectable doxorubicin,NSCLC xenografts,no detectable doxorubicin
same,Tumor size smaller than that in the PBS group,CL1-5-derived xenografts,16%
same,Blood concentration of doxorubicin after administration,"[3]; tail vein, spectrofluorometry",drops to background level within one hour
same,"AUC0-48 h, Nuclear",[3]; nuclear doxorubicin in tumor,3.7 μg h/g tumor
same,AUC0–48 hours of bioavailable doxorubicin (bound to nuclei),"[3]; tumor cell nuclei, spectrofluorometry",3.7 µg·h/g
same,Reduction of tumor size compared with PBS group,H460-derived xenografts,14%
TDSILRSYDWTY [PC5-2],Recognition of tumor cells of NSCLC surgical specimens,[4]; frozen sections,recognized
same,"Reaction area, HLC 1",[4]; human lung cancer surgical specimen HLC 1,+++ (>50%)
same,"Reaction area, HLC 2",[4]; human lung cancer surgical specimen HLC 2,+++ (>50%)
same,"Reaction area, HLC 3",[4]; human lung cancer surgical specimen HLC 3,- (0%)
same,"Reaction area, HLC 4",[4]; human lung cancer surgical specimen HLC 4,+ (<20%)
same,"Reaction area, HLC 5",[4]; human lung cancer surgical specimen HLC 5,+++ (>50%)
same,"Reaction area, HLC 6",[4]; human lung cancer surgical specimen HLC 6,++ (50~20%)
same,"Reaction area, HLC 7",[4]; human lung cancer surgical specimen HLC 7,++ (50~20%)
same,"Reaction area, HLC 8",[4]; human lung cancer surgical specimen HLC 8,++ (50~20%)
same,"Reaction area, HLC 9",[4]; human lung cancer surgical specimen HLC 9,+ (<20%)
same,"Reaction area, HLC 10",[4]; human lung cancer surgical specimen HLC 10,- (0%)
same,"Reaction area, HLC 11",[4]; human lung cancer surgical specimen HLC 11,++ (50~20%)
same,"Reaction area, HLC 12",[4]; human lung cancer surgical specimen HLC 12,++ (50~20%)
same,"Reaction area, HLC 13",[4]; human lung cancer surgical specimen HLC 13,+ (<20%)
same,"Reaction area, HLC 14",[4]; human lung cancer surgical specimen HLC 14,- (0%)
same,"Reaction area, HLC 15",[4]; human lung cancer surgical specimen HLC 15,+++ (>50%)
same,"Reaction area, HLC 16",[4]; human lung cancer surgical specimen HLC 16,- (0%)
same,"Reaction area, HLC 17",[4]; human lung cancer surgical specimen HLC 17,- (0%)
same,"Reaction area, HLC 18",[4]; human lung cancer surgical specimen HLC 18,++ (50~20%)
same,"Reaction area, HLC 19",[4]; human lung cancer surgical specimen HLC 19,+++ (>50%)
same,"Reaction area, HLC 20",[4]; human lung cancer surgical specimen HLC 20,+++ (>50%)
same,"Reaction area, HLC 21",[4]; human lung cancer surgical specimen HLC 21,++ (50~20%)
same,"Reaction area, HLC 22",[4]; human lung cancer surgical specimen HLC 22,- (0%)
same,"Reaction area, HLC 23",[4]; human lung cancer surgical specimen HLC 23,- (0%)
same,"Reaction area, HLC 24",[4]; human lung cancer surgical specimen HLC 24,++ (50~20%)
same,"Reaction area, HLC 25",[4]; human lung cancer surgical specimen HLC 25,+++ (>50%)
same,"Reaction area, HLC 26",[4]; human lung cancer surgical specimen HLC 26,+++ (>50%)
same,"Reaction area, HLC 27",[4]; human lung cancer surgical specimen HLC 27,+ (<20%)
same,"Reaction area, HLC 28",[4]; human lung cancer surgical specimen HLC 28,++ (50~20%)
same,"Reaction area, HLC 29",[4]; human lung cancer surgical specimen HLC 29,- (0%)
same,"Reaction area, HLC 30",[4]; human lung cancer surgical specimen HLC 30,++ (50~20%)
same,"Reaction area, HLC 31",[4]; human lung cancer surgical specimen HLC 31,++ (50~20%)
same,"Reaction area, HLC 32",[4]; human lung cancer surgical specimen HLC 32,- (0%)
same,"Reaction area, HLC 33",[4]; human lung cancer surgical specimen HLC 33,++ (50~20%)
same,"Reaction area, HLC 34",[4]; human lung cancer surgical specimen HLC 34,+++ (>50%)
same,"Reaction area, HLC 35",[4]; human lung cancer surgical specimen HLC 35,+ (<20%)
same,"Reaction area, HLC 36",[4]; human lung cancer surgical specimen HLC 36,++ (50~20%)
same,Immunohistochemical localization of phage in normal organs after i.v. injection,"CL1-5-derived tumors; brain, heart and lung tissues",no reaction product detected
same,Phage concentration in tumor masses relative to control organs,"CL1-5-derived tumors; i.v. 10^9 pfu, recovered after perfusion, control organs brain, heart and lungs",15 fold
same,Immunohistochemical localization of phage in tumor tissues after i.v. injection,"CL1-5-derived tumors; tumor sections, anti-M13 mAb",localize in tumor tissues
same,Binding of phage to SAS cells,oral cancer (SAS) cells,bound neither
same,Binding of phage to CL1-5 cells,CL1-5 cells [5],bound specifically
same,Binding of phage to PC13 cells,PC13 cells [6],bound specifically
same,Binding of phage to NPC-TW01 cells,[7],bound neither
same,Binding of phage to NNM cells,[8],nor to normal epithelial cells
same,Binding of phage to NPC-TW01 cells,NPC-TW01 cells,did not bind
same,CL1-5 cells bound by phage,CL1-5 cells [9],42.6%
same,Binding of phage to SAS cells,SAS cells,did not bind
same,Binding of phage to NNM cells,NNM cells,did not bind
